In patent US20250388554A1, “ANTIBACTERIAL COMPOUNDS, METHOD OF PRODUCTION AND USE THEREOF” (priority 2024, published 2025):
≈ marks a conversion by molar mass, not a printed value.

How the values were obtained:
[1] = test system: drug resistant clinical isolate S6 (Resistant to INH+Rifampicin); test: microbe, parasite or virus in culture; type: cell-based; settings: Mycobacterium tuberculosis, read-out: MIC99 (S6)
[2] = test system: drug resistant clinical isolate S7 (Resistant to INH); test: Resazurin assay (REMA) / alamarBlue MIC; type: cell-based; settings: Mycobacterium tuberculosis, read-out: MIC99 (S7)

SMILES	MIC99 [1] [µM]	MIC99 [2] [µM]
CC(C)C(N)c1ncnn1C (stereo not shown) [SF2, 2-methyl-1-(2-methyl-1,2,4-triazol-3-yl)propan-1-amine]	125 (≈ 19.3 µg/mL)	125 (≈ 19.3 µg/mL)
NCCSc1ncn[nH]1 [SF3, 2-(1H-1,2,4-triazol-5-ylsulfanyl)ethanamine]	–	250 (≈ 36.1 µg/mL)
CC(N)c1ncnn1C (stereo not shown) [SF1, 1-(2-methyl-1,2,4-triazol-3-yl)ethanamine]	–	250 (≈ 31.5 µg/mL)
